The assay concerns the target T1, CYP3A4 (Homo sapiens, UniProt P08684).
T1 construct: Pooled (n≧15 donors) human hepatic microsomal fraction was obtained from BD-Gentest; tissue BD-Gentest (Woburn, Mass.); host or cells: pooled human liver microsomes (n≧15 donors)
In words: CYP3A inhibition assay in pooled human hepatic microsomal fraction (midazolam 1-hydroxylase and testosterone 6β-hydroxylase activities). The assay is classed as biochemical. The conditions noted are these: human hepatic microsomes. The protocol: The initial mobile phase consisted of 94.9% water, 0.1% formic acid, and 5% acetonitrile (v/v/v) pumped at 0.5 mL/min. After 0.5 min the acetonitrile concentration was increased to 30% over 0.5 min. The acetonitrile concentration was then further increased to 100% over 0.5 min and held for 1.3 min, after which the column was re equilibrated at the initial conditions for 1.2 min. Rates of metabolite formation were determined from standard curves using PAR determined with authentic metabolite standards.

[1] abbreviates: probe activity midazolam 1-hydroxylase, read-out: CYP3A4 IC50 (μM) (midazolam).
[2] abbreviates: probe activity testosterone 6β-hydroxylase, substrate 50 μM, read-out: CYP3A4 IC50 (μM) (testosterone).

From patent US20130280212A1, “INHIBITORS OF CYTOCHROME P450” (GILEAD SCIENCES, INC, priority 2010, published 2013) come the findings set out here.

Read-outs that look alike come from different tables or passages of the source. Bounds are passed on as bounds.

T1 sequence (P08684 2-503): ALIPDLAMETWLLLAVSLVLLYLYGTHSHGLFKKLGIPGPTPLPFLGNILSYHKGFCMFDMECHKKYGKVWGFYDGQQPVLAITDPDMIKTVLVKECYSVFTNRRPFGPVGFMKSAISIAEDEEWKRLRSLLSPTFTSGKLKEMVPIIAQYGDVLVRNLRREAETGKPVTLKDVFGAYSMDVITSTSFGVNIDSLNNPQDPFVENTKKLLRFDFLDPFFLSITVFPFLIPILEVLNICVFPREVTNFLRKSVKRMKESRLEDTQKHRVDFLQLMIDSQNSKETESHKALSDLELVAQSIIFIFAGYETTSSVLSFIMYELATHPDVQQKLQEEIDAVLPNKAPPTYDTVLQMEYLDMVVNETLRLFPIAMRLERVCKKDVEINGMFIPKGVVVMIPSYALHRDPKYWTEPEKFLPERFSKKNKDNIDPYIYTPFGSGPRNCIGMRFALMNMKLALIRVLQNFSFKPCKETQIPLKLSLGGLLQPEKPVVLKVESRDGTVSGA

What is called IC50 is the concentration at which inhibition is half-maximal. In the case of `C[C@H]1CC[C@H](C(=O)N[C@H](CC[C@H](Cc2ccccc2)NC(=O)OCc2cncs2)Cc2ccccc2)CC1` [Compound 3], the IC50 under setting [1] is 0.12 µM and the IC50 under setting [2] is 0.27 µM.

With `CC(C)[C@H]1CC[C@H](C(=O)N[C@H](CC[C@H](Cc2ccccc2)NC(=O)OCc2cncs2)Cc2ccccc2)CC1` [Compound 4], the IC50 is, setting by setting: under setting [1], below 0.1 µM; under setting [2], 3.4 µM.

Turning to `O=C(N[C@H](CC[C@H](Cc1ccccc1)NC(=O)[C@H]1CC[C@H](c2ccc(Cl)cc2)CC1)Cc1ccccc1)OCc1cncs1` [Compound 5], the IC50 under setting [1] amounted to 1.8 µM and the IC50 under setting [2] is above 25 µM.

On to `CC[C@@H](C(=O)N[C@H](CC[C@H](Cc1ccccc1)NC(=O)OCc1cncs1)Cc1ccccc1)c1ccccc1` [Compound 6], for which the IC50 turned out to be 0.51 µM under setting [1] and 1.4 µM under setting [2].

For the compound `CC[C@H](C)C(=O)N[C@H](CC[C@H](Cc1ccccc1)NC(=O)OCc1cncs1)Cc1ccccc1` [Compound 7], the IC50 by setting is: under setting [1], below 0.1 µM; under setting [2], 0.36 µM.

Consider `CC(C)OC(=O)N[C@H](CC[C@H](Cc1ccccc1)NC(=O)OCc1cncs1)Cc1ccccc1` [Compound 8], for which the IC50 is, setting by setting: under setting [1], below 0.1 µM; under setting [2], 0.38 µM.

With `CCC(C)OC(=O)N[C@H](CC[C@H](Cc1ccccc1)NC(=O)OCc1cncs1)Cc1ccccc1` (some centres unmarked) [Compound 9], the IC50 runs as follows: under setting [1], 0.13 µM; under setting [2], 0.43 µM.

For the compound `CCC(CC)OC(=O)N[C@H](CC[C@H](Cc1ccccc1)NC(=O)OCc1cncs1)Cc1ccccc1` [Compound 10], the IC50 reads like this: under setting [1], 0.2 µM; under setting [2], 0.5 µM.

For `CC(C)CC(C)OC(=O)N[C@H](CC[C@H](Cc1ccccc1)NC(=O)OCc1cncs1)Cc1ccccc1` (some centres unmarked) [Compound 11], the IC50 by setting is: under setting [1], 0.25 µM; under setting [2], 0.71 µM.

Take `CC(C)CC(OC(=O)N[C@H](CC[C@H](Cc1ccccc1)NC(=O)OCc1cncs1)Cc1ccccc1)C(C)C` (some centres unmarked) [Compound 12]: the 50% inhibitory concentration (IC50) by setting is: under setting [1], 0.38 µM; under setting [2], 0.4 µM.

As for `CC(CC(C)(C)C)OC(=O)N[C@H](CC[C@H](Cc1ccccc1)NC(=O)OCc1cncs1)Cc1ccccc1` (some centres unmarked) [Compound 13], the IC50 by setting is: under setting [1], 0.4 µM; under setting [2], 0.54 µM.

With `CC(C)NC(=O)N[C@H](CC[C@H](Cc1ccccc1)NC(=O)OCc1cncs1)Cc1ccccc1` [Compound 14], the IC50 by setting is: under setting [1], below 0.1 µM; under setting [2], 0.27 µM.

Take `CCC(C)NC(=O)N[C@H](CC[C@H](Cc1ccccc1)NC(=O)OCc1cncs1)Cc1ccccc1` (some centres unmarked) [Compound 15]: the IC50 is below 0.1 µM under setting [1] and 0.25 µM under setting [2].

Take `CCC(CC)NC(=O)N[C@H](CC[C@H](Cc1ccccc1)NC(=O)OCc1cncs1)Cc1ccccc1` [Compound 16]: the IC50 under setting [1] was below 0.1 µM and the IC50 under setting [2] is 0.41 µM.

In the case of `CC(C)S(=O)(=O)N[C@H](CC[C@H](Cc1ccccc1)NC(=O)OCc1cncs1)Cc1ccccc1` [Compound 17], the 50% inhibitory concentration (IC50) is below 0.1 µM under setting [1] and 0.32 µM under setting [2].

Take `CCC(C)S(=O)(=O)N[C@H](CC[C@H](Cc1ccccc1)NC(=O)OCc1cncs1)Cc1ccccc1` (some centres unmarked) [Compound 18]: the IC50 is below 0.1 µM under setting [1] and 0.34 µM under setting [2].
